Assay results: patent US11395489B2, “Microbiocidal picolinamide derivatives” (Syngenta Participations AG, priority 2017, dated 2022)

Key:
[1] = system: Botryotinia fuckeliana (Botrytis cinerea); assay: Botryotinia fuckeliana (Botrytis cinerea) / liquid culture (Gray Mould); format: cell-based; settings: 72 h, 200 ppm in the formulation, inhibition of growth determined photometrically 3-4 days after application, read-out: disease control
Experimental: Botryotinia fuckeliana (Botrytis cinerea)/Liquid Culture (Gray Mould) Conidia of the fungus from cryogenic storage are directly mixed into nutrient broth (Vogels broth). After placing a (DMSO) solution of test compound into a microtiter plate (96-well format), the nutrient broth containing the fungal spores is added. The test plates are incubated at 24° C. and the inhibition of growth is determined photometrically 3-4 days after application.

[2] = system: Magnaporthe risea (Pyricularia Oryzae); assay: whole plant or invertebrate; format: in vivo; settings: foliar, read-out: disease control
[3] = system: Monocraphella nivalis (Microdochium nivale); assay: Monocraphella nivalis (Microdochium nivale) / liquid culture (Foot Rot Cereals); format: cell-based; settings: 96 h, 200 ppm in the formulation, inhibition of growth determined photometrically 4-5 days after application, read-out: disease control
Experimental: Monocraphella nivalis (Microdochium nivale)/Liquid Culture (Foot Rot Cereals) Conidia of the fungus from cryogenic storage are directly mixed into nutrient broth (PDB potato dextrose broth). After placing a (DMSO) solution of test compound into a microtiter plate (96-well format), the nutrient broth containing the fungal spores is added. The test plates are incubated at 24° C. and the inhibition of growth is determined photometrically 4-5 days after application.

[4] = system: Mycosphaerella arachidis (Cercospora arachidicola); assay: Mycosphaerella arachidis (Cercospora arachidicola) / liquid culture (Early Leaf Spot); format: cell-based; settings: 96 h, 200 ppm in the formulation, inhibition of growth determined photometrically 4-5 days after application, read-out: disease control
Experimental: Mycosphaerella arachidis (Cercospora arachidicola)/Liquid Culture (Early Leaf Spot) Conidia of the fungus from cryogenic storage are directly mixed into nutrient broth (PDB potato dextrose broth). After placing a (DMSO) solution of test compound into a microtiter plate (96-well format), the nutrient broth containing the fungal spores is added. The test plates are incubated at 24° C. and the inhibition of growth is determined photometrically 4-5 days after application.

[5] = system: Mycosphaerella Raminicola (Septoria tritici); assay: Mycosphaerella Raminicola (Septoria tritici) / liquid culture (Septoria Blotch); format: cell-based; settings: 200 ppm in the formulation, inhibition of growth determined photometrically 4 to 5 days after application, read-out: disease control
Experimental: Mycosphaerella Raminicola (Septoria tritici)/Liquid Culture (Septoria Blotch) Conidia of the fungus from cryogenic storage are directly mixed into nutrient broth (PDB potato dextrose broth). After placing a (DMSO) solution of test compound into a microtiter plate (96-well format), the nutrient broth containing the fungal spores is added. The test plates are incubated at 24° C. and the inhibition of growth is determined photometrically 4 to 5 days after application.

[6] = system: Puccinia recondita f. Sp. Tritici; assay: Puccinia recondita f. sp. tritici / wheat / leaf disc preventative (Brown Rust); format: in vivo; settings: foliar, 168 h, 200 ppm in the formulation, compared to untreated, 7-9 days after application, read-out: disease control
[7] = system: Glomerella lacenarium (Colletotrichum lacenarium); assay: Glomerella lacenarium (Colletotrichum lacenarium) / liquid culture (Anthracnose); format: cell-based; settings: 200 ppm in the formulation, inhibition of growth measured photometrically 3-4 days after application, read-out: disease control
Experimental: Glomerella lacenarium (Colletotrichum lacenarium)/Liquid Culture (Anthracnose) Conidia of the fungus from cryogenic storage are directly mixed into nutrient broth (PDB potato dextrose broth). After placing a (DMSO) solution of test compound into a microtiter plate (96-well format), the nutrient broth containing the fungal spores is added. The test plates are incubated at 24° C. and the inhibition of growth is measured photometrically 3-4 days after application.

[8] = system: Phaeosphaeria Nodorum (Septoria nodorum); assay: Phaeosphaeria nodorum (Septoria nodorum) / wheat / leaf disc preventative (Glume Blotch); format: in vivo; settings: Parastagonospora nodorum, foliar, 200 ppm in the formulation, compared to untreated, 5-7 days after application, read-out: disease control
Experimental: Phaeosphaeria Nodorum (Septoria nodorum)/Wheat/Leaf Disc Preventative (Glume Blotch) Wheat leaf segments cv. Kanzler are placed on agar in a multiwell plate (24-well format) and sprayed with the formulated test compound diluted in water. The leaf disks are inoculated with a spore suspension of the fungus 2 days after application. The inoculated test leaf disks are incubated at 20° C. and 75% rh under a light regime of 12 h light/12 h darkness in a climate cabinet and the activity of a compound is assessed as percent disease control compared to untreated when an appropriate level of disease damage appears in untreated check leaf disks (5-7 days after application).

COc1ccnc(C(=O)N[C@@H](C)C(=O)OC(C)C2(c3ccccc3)CC2)c1O (stereo partly drawn) [I.a.006, 1-(1-phenylcyclopropyl)ethyl (2S)-2-[(3-hydroxy-4-methoxy-pyridine-2-carbonyl)amino]propanoate]
≥ 80%: inhibition of growth at 200 ppm [1] | pest or weed control at 200 ppm [2] | inhibition of growth at 200 ppm [3] | inhibition of growth at 200 ppm [4] | inhibition of growth at 200 ppm [5] | pest or weed control at 200 ppm [6]

COc1ccnc(C(=O)N[C@@H](C)C(=O)OC(C)C2(c3cccc(Br)c3)CC2)c1O (stereo partly drawn) [I.d.006, 1-[1-(3-bromophenyl)-cyclopropyl]ethyl (2S)-2-[(3-hydroxy-4-methoxy-pyridine-2-carbonyl)amino]propanoate]
≥ 80%: inhibition of growth at 200 ppm [1] | inhibition of growth at 200 ppm [7] | inhibition of growth at 200 ppm [3] | inhibition of growth at 200 ppm [4] | inhibition of growth at 200 ppm [5] | pest or weed control at 200 ppm [6]

COc1ccnc(C(=O)N[C@@H](C)C(=O)OC(C)C(C)(C)c2ccc(F)cc2)c1O (stereo partly drawn) [I.j.001, [2-(4-fluorophenyl)-1,2-dimethyl-propyl] (2S)-2-[(3-hydroxy-4-methoxy-pyridine-2-carbonyl)-amino]propanoate]
≥ 80%: inhibition of growth at 200 ppm [1] | inhibition of growth at 200 ppm [7] | inhibition of growth at 200 ppm [3] | inhibition of growth at 200 ppm [4] | inhibition of growth at 200 ppm [5] | pest or weed control at 200 ppm [6]

COc1ccnc(C(=O)N[C@@H](C)C(=O)OC(C)C2(c3ccc(F)cc3)CC2c2ccccc2)c1O (stereo partly drawn) [I.j.010, 1-[1-(4-fluorophenyl)-2-phenyl-cyclopropyl]-ethyl (2S)-2-[(3-hydroxy-4-methoxy-pyridine-2-carbonyl)-amino]propanoate]
≥ 80%: inhibition of growth at 200 ppm [7] | inhibition of growth at 200 ppm [4] | inhibition of growth at 200 ppm [5] | pest or weed control at 200 ppm [6]

COc1ccnc(C(=O)N[C@@H](C)C(=O)OC(C)C2(c3ccc(F)cc3)CC2c2ccc(F)cc2)c1O (stereo partly drawn) [I.j.011, 1-[1,2-bis(4-fluoro-phenyl)cyclopropyl]-ethyl (2S)-2-[(3-hydroxy-4-methoxy-pyridine-2-carbonyl)-amino]propanoate]
≥ 80%: inhibition of growth at 200 ppm [7] | inhibition of growth at 200 ppm [3] | inhibition of growth at 200 ppm [4] | inhibition of growth at 200 ppm [5] | pest or weed control at 200 ppm [6]

COc1ccnc(C(=O)N[C@@H](C)C(=O)OC(C)C2(c3ccc(Cl)cc3)CCCC2)c1O (stereo partly drawn) [I.k.014, 1-[1-(4-chlorophenyl)-cyclopentyl]ethyl (2S)-2-[(3-hydroxy-4-methoxy-pyridine-2-carbonyl)amino]propanoate]
≥ 80%: inhibition of growth at 200 ppm [1] | inhibition of growth at 200 ppm [7] | pest or weed control at 200 ppm [2] | inhibition of growth at 200 ppm [3] | inhibition of growth at 200 ppm [4] | inhibition of growth at 200 ppm [5] | pest or weed control at 200 ppm [6]

COc1ccnc(C(=O)N[C@@H](C)C(=O)OC(C)C2(c3ccc(Br)cc3)CCC2)c1O (stereo partly drawn) [I.m.012, 1-[1-(4-bromophenyl)-cyclobutyl]ethyl (2S)-2-[(3-hydroxy-4-methoxy-pyridine-2-carbonyl)amino]propanoate]
≥ 80%: inhibition of growth at 200 ppm [1] | inhibition of growth at 200 ppm [7] | pest or weed control at 200 ppm [2] | inhibition of growth at 200 ppm [3] | inhibition of growth at 200 ppm [4] | inhibition of growth at 200 ppm [5] | pest or weed control at 200 ppm [6]

COc1ccnc(C(=O)N[C@@H](C)C(=O)OC(C)C2(c3ccc(OC(F)(F)F)cc3)CC2)c1O (stereo partly drawn) [I.q.006, 1-[1-[4-(trifluoro-methoxy)phenyl]cyclo-propyl]ethyl (2S)-2-[(3-hydroxy-4-methoxy-pyridine-2-carbonyl)amino]propanoate]
≥ 80%: inhibition of growth at 200 ppm [1] | inhibition of growth at 200 ppm [7] | pest or weed control at 200 ppm [2] | inhibition of growth at 200 ppm [3] | inhibition of growth at 200 ppm [4] | inhibition of growth at 200 ppm [5] | pest or weed control at 200 ppm [6]

COc1ccnc(C(=O)N[C@@H](C)C(=O)OC(C)C2(c3ccc(Cl)c(Cl)c3)CC2)c1O (stereo partly drawn) [I.t.006, 1-[1-(3,4-dichloro-phenyl)cyclopropyl]-ethyl (2S)-2-[(3-hydroxy-4-methoxy-pyridine-2-carbonyl)-amino]propanoate]
≥ 80%: inhibition of growth at 200 ppm [1] | inhibition of growth at 200 ppm [7] | pest or weed control at 200 ppm [2] | inhibition of growth at 200 ppm [3] | inhibition of growth at 200 ppm [4] | inhibition of growth at 200 ppm [5] | pest or weed control at 200 ppm [6]

CCOc1ccc(C2(C(C)OC(=O)[C@H](C)NC(=O)c3nccc(OC)c3O)CC2(F)F)cc1 (stereo partly drawn) [I.u.007, 1-[1-(4-ethoxyphenyl)-2,2-difluorocyclopropyl]-ethyl (2S)-2-[(3-hydroxy-4-methoxy-pyridine-2-carbonyl)amino]propanoate]
≥ 80%: inhibition of growth at 200 ppm [1] | inhibition of growth at 200 ppm [7] | pest or weed control at 200 ppm [2] | inhibition of growth at 200 ppm [3] | inhibition of growth at 200 ppm [5] | pest or weed control at 200 ppm [6]

COc1ccnc(C(=O)N[C@@H](C)C(=O)OC(C)C2(c3cccc4ccccc34)CC2)c1O (stereo partly drawn) [I.v.006, 1-[1-(1-naphthyl)cyclo-propyl]ethyl (2S)-2-[(3-hydroxy-4-methoxy-pyridine-2-carbonyl)-amino]propanoate]
≥ 80%: inhibition of growth at 200 ppm [7] | inhibition of growth at 200 ppm [3] | inhibition of growth at 200 ppm [4] | inhibition of growth at 200 ppm [5] | pest or weed control at 200 ppm [8] | pest or weed control at 200 ppm [6]

COc1ccnc(C(=O)N[C@@H](C)C(=O)OC(C)C2(c3cccc4ccccc34)CC2c2ccccc2)c1O (stereo partly drawn) [I.v.010, 1-[1-(1-naphthyl)-2-phenyl-cyclopropyl]-ethyl (2S)-2-[(3-hydroxy-4-methoxy-pyridine-2-carbonyl)-amino]propanoate]
≥ 80%: inhibition of growth at 200 ppm [7] | inhibition of growth at 200 ppm [4] | inhibition of growth at 200 ppm [5] | pest or weed control at 200 ppm [6]

COc1ccnc(C(=O)N[C@@H](C)C(=O)OC(C)C2(c3cccc4ccccc34)CC2c2ccc(F)cc2)c1O (stereo partly drawn) [I.v.011, 1-[2-(4-fluorophenyl)-1-(1-naphthyl)cyclo-propyl]ethyl (2S)-2-[(3-hydroxy-4-methoxy-pyridine-2-carbonyl)amino]-propanoate]
≥ 80%: inhibition of growth at 200 ppm [7] | inhibition of growth at 200 ppm [4] | inhibition of growth at 200 ppm [5] | pest or weed control at 200 ppm [6]
